Reference: US9999617B2, “Compositions for treating bacterial infections” (TRUSTEES OF DARTMOUTH COLLEGE, priority 2009, dated 2018)
Converted amounts (≈) assume the structure as drawn.

Each molecule was assayed on S. aureus (assay: Minimum Inhibitory Concentration (MIC), inhibition of growth of S. aureus in vitro). Settings: Staphylococcus aureus.
Assay type: cell-based
Method: Once the compounds of the present invention were identified through the MazEF screening assay described above, the activity of the compounds to inhibit growth of S. aureus in vitro was tested using the standard method of determining Minimum Inhibitory Concentrations (MICs). Such methods are well known to those of skill in the art since determining MIC doses is a standard assay in development of antibiotic drugs. For example, MIC values can be determined according to the Clinical and Laboratory Standards Institute guidelines. In Table 1, the MIC values are presented for each of the ten compounds identified through the MazEF screening assay as having potential for antibiotic activity in S. aureus.

Point of comparison: `Cc1ccc(Nc2nc3nonc3nc2N)c(C)c1` [Compound 4], MIC 12.5 µg/mL (≈ 48.8 µM). Against it:
- O=C1c2ccccc2-c2onc3ccc(Cl)c1c23 [Compound 5] — 2-fold lower, 6.25 µg/mL (≈ 24.4 µM)

Same assay, conditions: Staphylococcus aureus; S. aureus growth in vitro; read-out: MIC

Point of comparison: `COc1ccc(/C=C2\SC(=O)NC2=S)cc1` [Compound 6], MIC 0.78 µg/mL (≈ 3.1 µM). Against it:
- CN1C(=O)/C(=C/c2cc(Br)cc([N+](=O)[O-])c2O)SC1=S [Compound 2] — 16-fold higher, 12.5 µg/mL (≈ 33.3 µM)
- COc1cc(/C=C2/S/C(=N\S(=O)(=O)c3ccccc3)NC2=O)ccc1O [Compound 7] — 130-fold higher, 100 µg/mL (≈ 256 µM)
- CCN1CCc2c(sc(NC(=O)Nc3ccc(Cl)cc3)c2C(N)=O)C1 [Compound 9] — 130-fold higher, 100 µg/mL (≈ 264 µM)
